Experimental data: patent publication US20090177280A1, “Implant With Multiple Coating” (priority 2005, published 2009)
Entries after “also recorded” stand apart in the source; their conditions may differ.

Test: Release of rapamycin from spray-coated microporous stents (UV spectroscopy at 280 nm)
Type: physicochemical
Settings: for effect of second drug on rapamycin release from the stent platform: 0.5% and 1.0% 17β estradiol valerate added to 1% rapamycin solution in ethanol
Description: Microporous stents are spray-coated by means of a unique stent-coating machine (Wessely et al, supra). Attachment of a drug-reservoir is required to supply one or multiple drugs of choice. Besides sirolimus (rapamycin) we included a second drug at different concentrations to examine whether release kinetics of the primary compound (e.g. sirolimus) could be altered. Released rapamycin from the stent platform were measured at distinctive time points as previously described (Wessely, supra) by means of UV spectroscopy at a wave length of 280 nm.
The experiment was carried out as Example 1 with the exception that 17β estradiol was used as second drug.
The experiment was carried out as Example 1 with the exception that rosiglitazone was used as second drug.
The experiment was carried out as Example 1 with the exception that probucol was used as second drug.

CCCCC(=O)O[C@H]1CC[C@H]2[C@@H]3CCc4cc(O)ccc4[C@H]3CC[C@]12C [17β estradiol valerate]
effect of second drug on rapamycin release from the stent platform (0.1%): substantially modulate rapamycin release
effect of second drug on rapamycin release from the stent platform (0.1%, listed as estradiolvalerat): retardation

COc1ccccc1OCCNCC(O)COc1cccc2[nH]c3ccccc3c12 (stereo not shown) [carvedilol]
effect of second drug on stent-based rapamycin release (multiplex coating with rapamycin (1%) and carvedilol (0.5%) in ethanol vs single coated rapamycin (1%)): clear retardation

CC(C)(Sc1cc(C(C)(C)C)c(O)c(C(C)(C)C)c1)Sc1cc(C(C)(C)C)c(O)c(C(C)(C)C)c1 [probucol, 4,4′-(isopropylidenedithio) bis(2,6-di-tert-butyl-phenol)]
effect of second drug on release of rapamycin from the stent (0.1%, 0.5% and 1.0% probucol added to 4% rapamycin solution in ethanol, polymer-free): protracts the release of rapamycin; also recorded: modifiable
